Columns and labels:
Assay type in all cases: cell-based
[1] = system: Salmonella typhimurium TA98; experiment: Ames test (reverse mutation test), TA98
Protocol: (§1) The solvent used herein was dimethyl sulfoxide (DMSO, 100 µL/plate).
(§2) The mixtures were preincubated at 37° C. for 20 minutes while shaking. […] Two plates per treatment were used.

[2] = system: Salmonella typhimurium TA1537; experiment: Ames test (reverse mutation test), TA1537
Protocol: as §1, §2

[3] = system: Salmonella typhimurium TA100; experiment: Ames test (reverse mutation test), TA100
Protocol: as §1, §2

[4] = system: Salmonella typhimurium TA1535; experiment: Ames test (reverse mutation test), TA1535
Protocol: as §1, §2

[5] = system: Escherichia coli WP2uvrA; experiment: Ames test (reverse mutation test), WP2uvrA
Protocol: as §1, §2

Cc1cccc(-n2nc(N)cc2-c2cccc(OC(F)(F)F)c2)c1 [Metabolite H]
Number of revertant colonies TA98 ([1]; S9 Mix +, dose 2.3 µg/plate): 56
Number of revertant colonies TA98 ([1]; S9 Mix +, dose 6.9 µg/plate): 61
Number of revertant colonies TA98 ([1]; S9 Mix +, dose 21 µg/plate): 152
Number of revertant colonies TA98 ([1]; S9 Mix +, dose 62 µg/plate): 194
Number of revertant colonies TA98 ([1]; S9 Mix +, dose 185 µg/plate): 85
Number of revertant colonies TA98 ([1]; S9 Mix +, dose 556 µg/plate): 56
Number of revertant colonies TA98 ([1]; S9 Mix +, dose 1667 µg/plate): 48
Number of revertant colonies TA98 ([1]; S9 Mix +, dose 5000 µg/plate): 20
Number of revertant colonies TA98 ([1]; S9 Mix -, dose 2.3 µg/plate): 18
Number of revertant colonies TA98 ([1]; S9 Mix -, dose 6.9 µg/plate): 23
Number of revertant colonies TA98 ([1]; S9 Mix -, dose 21 µg/plate): 18
Number of revertant colonies TA98 ([1]; S9 Mix -, dose 62 µg/plate): 20
Number of revertant colonies TA98 ([1]; S9 Mix -, dose 185 µg/plate): 22
Number of revertant colonies TA98 ([1]; S9 Mix -, dose 556 µg/plate): 20
Number of revertant colonies TA98 ([1]; S9 Mix -, dose 1667 µg/plate): 17
Number of revertant colonies TA98 ([1]; S9 Mix -, dose 5000 µg/plate): 3
potential to induce reverse mutations ([1]; TA98 with S9 mix): showed potential to induce reverse mutations
Number of revertant colonies TA1537 ([2]; S9 Mix +, dose 2.3 µg/plate): 11
Number of revertant colonies TA1537 ([2]; S9 Mix +, dose 6.9 µg/plate): 15
Number of revertant colonies TA1537 ([2]; S9 Mix +, dose 21 µg/plate): 26
Number of revertant colonies TA1537 ([2]; S9 Mix +, dose 62 µg/plate): 35
Number of revertant colonies TA1537 ([2]; S9 Mix +, dose 185 µg/plate): 18
Number of revertant colonies TA1537 ([2]; S9 Mix +, dose 556 µg/plate): 10
Number of revertant colonies TA1537 ([2]; S9 Mix +, dose 1667 µg/plate): 19
Number of revertant colonies TA1537 ([2]; S9 Mix +, dose 5000 µg/plate): 15
Number of revertant colonies TA1537 ([2]; S9 Mix -, dose 2.3 µg/plate): 9
Number of revertant colonies TA1537 ([2]; S9 Mix -, dose 6.9 µg/plate): 9
Number of revertant colonies TA1537 ([2]; S9 Mix -, dose 21 µg/plate): 11
Number of revertant colonies TA1537 ([2]; S9 Mix -, dose 62 µg/plate): 9
Number of revertant colonies TA1537 ([2]; S9 Mix -, dose 185 µg/plate): 4
Number of revertant colonies TA1537 ([2]; S9 Mix -, dose 556 µg/plate): 6
Number of revertant colonies TA1537 ([2]; S9 Mix -, dose 1667 µg/plate): 5
Number of revertant colonies TA1537 ([2]; S9 Mix -, dose 5000 µg/plate): 2
potential to induce reverse mutations ([2]; TA1537 with S9 mix): showed potential to induce reverse mutations
Number of revertant colonies TA100 ([3]; S9 Mix +, dose 2.3 µg/plate): 449
Number of revertant colonies TA100 ([3]; S9 Mix +, dose 6.9 µg/plate): 1035
Number of revertant colonies TA100 ([3]; S9 Mix +, dose 21 µg/plate): 2000
Number of revertant colonies TA100 ([3]; S9 Mix +, dose 62 µg/plate): 2212
Number of revertant colonies TA100 ([3]; S9 Mix +, dose 185 µg/plate): 722
Number of revertant colonies TA100 ([3]; S9 Mix +, dose 556 µg/plate): 373
Number of revertant colonies TA100 ([3]; S9 Mix +, dose 1667 µg/plate): 242
Number of revertant colonies TA100 ([3]; S9 Mix +, dose 5000 µg/plate): 75
Number of revertant colonies TA100 ([3]; S9 Mix -, dose 2.3 µg/plate): 130
Number of revertant colonies TA100 ([3]; S9 Mix -, dose 6.9 µg/plate): 127
Number of revertant colonies TA100 ([3]; S9 Mix -, dose 21 µg/plate): 136
Number of revertant colonies TA100 ([3]; S9 Mix -, dose 62 µg/plate): 113
Number of revertant colonies TA100 ([3]; S9 Mix -, dose 185 µg/plate): 103
Number of revertant colonies TA100 ([3]; S9 Mix -, dose 556 µg/plate): 88
Number of revertant colonies TA100 ([3]; S9 Mix -, dose 1667 µg/plate): 79
Number of revertant colonies TA100 ([3]; S9 Mix -, dose 5000 µg/plate): 55
potential to induce reverse mutations ([3]; TA100 with S9 mix): showed potential to induce reverse mutations
Number of revertant colonies TA1535 ([4]; S9 Mix +, dose 1667 µg/plate): 3
Number of revertant colonies TA1535 ([4]; S9 Mix -, dose 185 µg/plate): 14
Number of revertant colonies TA1535 ([4]; S9 Mix -, dose 1667 µg/plate): 6
Number of revertant colonies WP2uvrA ([5]; S9 Mix +, dose 2.3 µg/plate): 23
Number of revertant colonies WP2uvrA ([5]; S9 Mix +, dose 6.9 µg/plate): 25
Number of revertant colonies WP2uvrA ([5]; S9 Mix +, dose 21 µg/plate): 25
Number of revertant colonies WP2uvrA ([5]; S9 Mix +, dose 62 µg/plate): 35
Number of revertant colonies WP2uvrA ([5]; S9 Mix +, dose 185 µg/plate): 26
Number of revertant colonies WP2uvrA ([5]; S9 Mix +, dose 556 µg/plate): 20
Number of revertant colonies WP2uvrA ([5]; S9 Mix +, dose 1667 µg/plate): 19
Number of revertant colonies WP2uvrA ([5]; S9 Mix +, dose 5000 µg/plate): 9
Number of revertant colonies WP2uvrA ([5]; S9 Mix -, dose 2.3 µg/plate): 21
Number of revertant colonies WP2uvrA ([5]; S9 Mix -, dose 6.9 µg/plate): 18
Number of revertant colonies WP2uvrA ([5]; S9 Mix -, dose 21 µg/plate): 18
Number of revertant colonies WP2uvrA ([5]; S9 Mix -, dose 62 µg/plate): 20
Number of revertant colonies WP2uvrA ([5]; S9 Mix -, dose 185 µg/plate): 20
Number of revertant colonies WP2uvrA ([5]; S9 Mix -, dose 556 µg/plate): 17
Number of revertant colonies WP2uvrA ([5]; S9 Mix -, dose 1667 µg/plate): 13
Number of revertant colonies WP2uvrA ([5]; S9 Mix -, dose 5000 µg/plate): 8

— patent US20230210831A1, “CHRONIC KIDNEY DISEASE TREATMENT OR PREVENTION METHOD” (Japan Tobacco Inc., priority 2019, published 2023)
